Measured values taken from US9346818B2 (priority 2012, dated 2016).
Entries after “also recorded” stand apart in the source; their conditions may differ.

Assays:
acetylcholinesterase = acetylcholinesterase (Homo sapiens (Human), UniProt P22303); test: biochemical; assay type: biochemical
[1] = system: learning and memory disorder induced by intracerebroventricular injection of Aβ1-42; test: Morris water maze test, rats with intracerebroventricular injection of Aβ1-42; assay type: in vivo; details: for The period of reaching the platform for the first time (latent period) / times of crossing platform: 8 days
Procedure: The model of learning and memory disorder induced after intracerebroventricular injection of Aβ1-42 is the most common animal model for evaluating whether a compound has the effect of improving the learning and memory. […] Morris water maze test and the model of learning and memory disorder induced by intracerebroventricular injection of Aβ1-42 were employed in the present research, and the improvement effects of I-33 on learning and memory of rats at various concentration (0.7 mg/Kg, 3.5 mg/Kg, and 7 mg/Kg) were evaluated.
SD, male (220±20 g), the animals were fed in light: dark cycle (12 h/12 h) in a cleaning level of animal room, ad lib. The tests were performed after 3 days acclimation in the animal room. Aβ1-42 was formulated to 2 μg/μl according to the instruction of specification.
(1) Normal group: intracerebroventricular injection of physiological saline
(2) Model group with intracerebroventricular injection of Aβ1-42: intracerebroventricular injection of Aβ1-42
(4) I-33 (low concentration group): I-33 (0.7 mg/Kg)+intracerebroventricular injection of Aβ1-42
(5) I-33 (medium concentration group): I-33 (3.5 mg/Kg)+intracerebroventricular injection of Aβ1-42
(6) I-33 (high concentration group): I-33 (7 mg/Kg)+intracerebroventricular injection of Aβ1-42
Each rat in normal control group received intracerebroventricular injection of 5 μl of physiological saline, each rat in the other groups received intracerebroventricular injection of 5 μl of Aβ1-42. After the operation, the rats received the following tests after 1 week recovery period. […] The drugs were administered for 8 days, the training for water maze test was started on the 5th day, and the water maze test was formally started on the 9th day.

in vivo = details: mouse, in vivo
Procedure: (§1) Firstly, preliminary tests were performed, in order to determine the concentration of each compound, with just 0% mortality or just 100% mortality, before starting the formal tests. The animals were divided into groups by weight, various dosages of drugs were administered between 0%-100%. Dosage volume: 10 ml/kg. Dosage manner: intravenous injection or intragastric administration.
(§2) The animals were divided into 6 groups, with 5 animals per group.
(§3) The animals were divided into 6 groups, with 5 animals per group. […] Each animal was fasted 12 h before administration.
(§4) The animals were divided into 5 groups, with 5 animals per group.
(§5) The animals were divided into 5 groups, with 5 animals per group. […] Each animal was fasted 12 h before administration.
(§6) The toxic reaction and death of the animals after administration were observed, and mortality was counted. The results were analyzed with LD50 data processing software.

white mice = test: in vivo; details: for Mortality (%) / Number of death: 5 animals
Procedure: as §1, §2, §3, §4, §5, §6

[2] = Procedure: 0.3 ml of whole blood was collected at corresponding time point, anticoagulating with heparin, centrifuged at 4000 rpm for 10 min, the plasma was separated, 50 μL the plasma sample of rats was collected, 100 μL acetonitrile (containing 0.1% formic acid) was added, mixed under vortex for 1 min, centrifuged (12000 rpm) for 10 min, the supernatant was collected, analyzed with liquid chromatography-mass spectrometer, the area of peaks were recorded and used for the calculation of blood drug concentration, and the drug-time curve was plotted.
[3] = Aβ1-42 rats, DPH 3 mg/Kg, I-33 all dosages tested
[4] = high concentration 7 mg/Kg intragastric, Aβ1-42 rats
[5] = low concentration 0.7 mg/Kg intragastric, Aβ1-42 rats
[6] = medium concentration 3.5 mg/Kg intragastric, Aβ1-42 rats
[7] = Intragastric administration 215.23 mg/kg
[8] = Intragastric administration 239.15 mg/kg
[9] = Intragastric administration 265.72 mg/kg
[10] = Intragastric administration 295.25 mg/kg
[11] = Intragastric administration 450.00 mg/kg
[12] = Intragastric administration 500.00 mg/kg
[13] = Intravenous injection 16.18 mg/kg
[14] = Intravenous injection 20.48 mg/kg
[15] = Intravenous injection 25.60 mg/kg
[16] = Intravenous injection 32.00 mg/kg
[17] = Intravenous injection 40.00 mg/kg
[18] = Intravenous injection 50.00 mg/kg

acetylcholinesterase, sequence (P22303 32-614, species assumed): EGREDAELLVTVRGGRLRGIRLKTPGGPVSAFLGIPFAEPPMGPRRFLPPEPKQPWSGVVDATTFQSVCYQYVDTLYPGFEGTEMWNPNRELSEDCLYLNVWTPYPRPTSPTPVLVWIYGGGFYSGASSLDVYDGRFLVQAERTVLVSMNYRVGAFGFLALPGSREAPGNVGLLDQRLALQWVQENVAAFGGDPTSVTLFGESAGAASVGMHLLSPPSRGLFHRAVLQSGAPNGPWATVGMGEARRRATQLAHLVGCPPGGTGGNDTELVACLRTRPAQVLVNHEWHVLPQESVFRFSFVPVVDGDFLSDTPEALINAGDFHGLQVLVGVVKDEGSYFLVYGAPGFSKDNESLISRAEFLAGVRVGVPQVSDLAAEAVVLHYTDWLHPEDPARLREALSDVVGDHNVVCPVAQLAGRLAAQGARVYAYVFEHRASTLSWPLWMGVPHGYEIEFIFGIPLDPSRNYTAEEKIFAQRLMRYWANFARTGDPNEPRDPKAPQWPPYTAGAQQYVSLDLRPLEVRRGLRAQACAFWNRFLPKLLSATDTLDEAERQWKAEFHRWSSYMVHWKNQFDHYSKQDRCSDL

In the case of `Cl.O=C1c2cc3c(cc2C2(CC2)N1CCC1CCN(Cc2ccccn2)CC1)OCO3` [Compound I-33, 6-[2-[1-(2-pyridylmethyl)-4-piperidyl]ethyl]spiro[[1,3]dioxolo[4,5-f]isoindole-7,1′-cyclopropane]-5-one hydrochloride], the “potency on acetylcholinesterase compared with positive control drug donepezil hydrochloride” value (acetylcholinesterase; in vitro, enzymology level) is reported as “even lower”, the IC50 (acetylcholinesterase; read-out: IC50 (nM), inhibition activity on acetylcholinesterase) is reported as 950 nM and the “effect on period required for reaching the platform for the first time (latent period)” value [1, 3] is reported as “significantly shorten the period required for reaching the platform for the first time”. For the same molecule, the “effect on times of crossing the platform” value [1, 3] was “significantly increases the times of crossing the platform”, the “improvement of learning and memory disorder of rats induced by Aβ1-42” value ([1]; Morris water maze, 0.7, 3.5 and 7 mg/Kg, hydrochloride) was “significantly improve the learning and memory disorder of rats induced by intracerebroventricular injection of Aβ1-42; also recorded: stronger effects of improving learning and memory” and the “The period of reaching the platform for the first time (latent period)” value (“The period of reaching the platform” for short) [1, 4] was 14.87 ± 3.62. For the same molecule, the “times of crossing platform” value [1, 4] was 3.20 ± 0.36, the “The period of reaching the platform” value [1, 5] was 21.37 ± 3.64 and the “times of crossing platform” value [1, 5] was 3.00 ± 0.33. The “The period of reaching the platform” value [1, 6] was 18.10 ± 6.54, the “times of crossing platform” value [1, 6] was 3.40 ± 0.43 and the LD50 (in vivo; iv) was 31.3 mg/kg. The LD50 (in vivo; po) was 303 mg/kg, the “Mortality (%)” value (white mice; [7]) was 0% and the Number of death (white mice; [7]) was 0. For the same molecule, the “Mortality (%)” value (white mice; [8]) was 0%, the Number of death (white mice; [8]) was 1 and the “Mortality (%)” value (white mice; [9]) was 40%. For the same molecule, the Number of death (white mice; [9]) was 2, the “Mortality (%)” value (white mice; [10]) was 60% and the Number of death (white mice; [10]) was 3. For the same molecule, the “Mortality (%)” value (white mice; [11]) was 80%, the Number of death (white mice; [11]) was 4 and the “Mortality (%)” value (white mice; [12]) was 100%. The Number of death (white mice; [12]) was 5, the “Mortality (%)” value (white mice; [13]) was 0% and the Number of death (white mice; [13]) was 0. For the same molecule, the “Mortality (%)” value (white mice; [14]) was 0%, the Number of death (white mice; [14]) was 0 and the “Mortality (%)” value (white mice; [15]) was 20%. The Number of death (white mice; [15]) was 1, the “Mortality (%)” value (white mice; [16]) was 60% and the Number of death (white mice; [16]) was 3. For the same molecule, the “Mortality (%)” value (white mice; [17]) was 80%, the Number of death (white mice; [17]) was 4 and the “Mortality (%)” value (white mice; [18]) was 100%. The Number of death (white mice; [18]) was 5, the “median lethal dose by oral and intravenous administration, times of those of donepezil hydrochloride” value (white mice; oral and intravenous) was 8-10 times and the “toxicity compared with donepezil hydrochloride” value (white mice; preliminary acute toxicity tests, hydrochloride) was “lower toxicity than donepezil hydrochloride; also recorded: much lower toxicity”. The t1/2z ([2]; rat plasma, oral 5 mg/kg) was 2.085 ± 0.392 and the “absorption degree (AUC) and peak concentration (Cmax) compared with donepezil hydrochloride” value ([2]; rat, oral, same dosage 5 mg/kg) was “significantly higher than those of donepezil hydrochloride”.
